Type in all cases: biochemical
One experiment deals with T1, DPP IV (Rattus norvegicus, UniProt P14740).
T1 construct: from tissue; host or cells: rat plasma
In words: Invitro DPP4 inhibition assay in rat plasma. To be noted: substrate Gly-Pro-AMC. The method, then:
The assay system comprises of […] of rat plasma, 20 mM MgCl2 test compound, 50 uM substrate Gly-Pro-AMC & buffer (25 mM HEPES, 140 mM NaCl, 1% BSA, pH 7.8) in a total reaction volume of 100 μl. The test compound was preincubated with plasma and MgCl2 for 10 minutes at 37° C. followed by further incubation of 20 minutes after addition of substrate. The experiment was repeated using vehicle as control. The AMC (7-Amino-4-Methylcoumarin) liberated in the samples was quantified in a Multilable counter at excitation wavelength 355 nm & emission wavelength 462 nm from a standard AMC plot. The DPP4 activity in each sample was represented as pmoles of AMC released/mg/min. Plasma protein was estimated by Lowry's method.

A further experiment concerns the target DPP7 (Homo sapiens, UniProt Q9UHL4). Briefly: Percent inhibition of DPP7 activity. To be noted: at 10000 nM concentration. The text has this: (§1) The following Table 39 gives percent inhibition DPP7, DPP8 & DPP9 activity, as determined for exemplary compounds of the invention
For another experiment, the target named is DPP8 (Homo sapiens, UniProt Q6V1X1). Briefly: Percent inhibition of DPP8 activity. To be noted: at 10000 nM concentration.
From the text: as §1

The target in the next experiment is DPP9 (Homo sapiens, UniProt Q86TI2). In words: Percent inhibition of DPP9 activity. To be noted: at 10000 nM concentration.
From the text: as §1

As a reminder, the IC50 is the concentration that gives 50% inhibition. Usually inhibition stands for the relative decrease from the control value, in per cent. A low value points to a response near the control.

T1 sequence (P14740 37-767 limits assumed): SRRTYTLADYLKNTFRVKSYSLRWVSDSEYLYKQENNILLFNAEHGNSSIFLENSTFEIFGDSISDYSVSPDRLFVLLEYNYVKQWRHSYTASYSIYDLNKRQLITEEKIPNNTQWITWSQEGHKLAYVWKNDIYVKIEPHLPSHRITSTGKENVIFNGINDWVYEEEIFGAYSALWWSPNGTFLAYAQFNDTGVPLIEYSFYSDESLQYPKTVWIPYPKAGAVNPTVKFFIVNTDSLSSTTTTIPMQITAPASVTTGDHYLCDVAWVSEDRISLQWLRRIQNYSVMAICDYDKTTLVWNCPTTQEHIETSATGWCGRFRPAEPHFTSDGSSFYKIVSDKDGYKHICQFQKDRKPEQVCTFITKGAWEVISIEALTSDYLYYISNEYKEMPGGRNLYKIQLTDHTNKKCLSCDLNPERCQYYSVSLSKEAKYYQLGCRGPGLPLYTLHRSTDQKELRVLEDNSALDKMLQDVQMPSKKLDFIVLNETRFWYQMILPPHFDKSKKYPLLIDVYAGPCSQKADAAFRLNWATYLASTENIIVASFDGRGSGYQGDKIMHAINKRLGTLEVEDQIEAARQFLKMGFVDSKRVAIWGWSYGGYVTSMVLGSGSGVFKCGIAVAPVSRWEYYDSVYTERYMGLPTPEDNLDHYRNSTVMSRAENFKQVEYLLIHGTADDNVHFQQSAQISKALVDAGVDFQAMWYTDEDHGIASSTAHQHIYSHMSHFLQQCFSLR
Sequence of DPP9 (Q86TI2 whole entry, species assumed): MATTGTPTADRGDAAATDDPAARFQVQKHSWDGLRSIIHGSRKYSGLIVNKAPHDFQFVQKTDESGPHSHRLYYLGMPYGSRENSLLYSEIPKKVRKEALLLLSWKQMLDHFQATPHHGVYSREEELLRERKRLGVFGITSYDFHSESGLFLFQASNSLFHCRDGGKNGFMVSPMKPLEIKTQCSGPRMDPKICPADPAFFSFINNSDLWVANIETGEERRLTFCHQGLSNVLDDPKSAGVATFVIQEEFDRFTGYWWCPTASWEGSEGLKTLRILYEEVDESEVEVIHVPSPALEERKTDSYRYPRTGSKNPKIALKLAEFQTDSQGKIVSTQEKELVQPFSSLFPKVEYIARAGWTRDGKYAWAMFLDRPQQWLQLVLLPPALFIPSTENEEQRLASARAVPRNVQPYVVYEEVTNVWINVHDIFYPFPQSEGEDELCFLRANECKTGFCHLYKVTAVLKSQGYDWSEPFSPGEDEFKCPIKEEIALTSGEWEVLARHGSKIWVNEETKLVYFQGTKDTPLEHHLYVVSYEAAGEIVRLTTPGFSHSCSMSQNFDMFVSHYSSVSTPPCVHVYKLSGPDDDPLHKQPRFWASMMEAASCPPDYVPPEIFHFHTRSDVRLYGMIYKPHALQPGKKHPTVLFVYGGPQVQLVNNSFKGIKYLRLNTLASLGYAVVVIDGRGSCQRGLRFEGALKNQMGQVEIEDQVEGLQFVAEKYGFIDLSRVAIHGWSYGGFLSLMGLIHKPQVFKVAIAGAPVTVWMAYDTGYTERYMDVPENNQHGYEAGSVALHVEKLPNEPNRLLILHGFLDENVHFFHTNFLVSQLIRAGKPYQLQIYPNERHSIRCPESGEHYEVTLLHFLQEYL
Sequence of DPP8 (Q6V1X1 whole entry, species assumed): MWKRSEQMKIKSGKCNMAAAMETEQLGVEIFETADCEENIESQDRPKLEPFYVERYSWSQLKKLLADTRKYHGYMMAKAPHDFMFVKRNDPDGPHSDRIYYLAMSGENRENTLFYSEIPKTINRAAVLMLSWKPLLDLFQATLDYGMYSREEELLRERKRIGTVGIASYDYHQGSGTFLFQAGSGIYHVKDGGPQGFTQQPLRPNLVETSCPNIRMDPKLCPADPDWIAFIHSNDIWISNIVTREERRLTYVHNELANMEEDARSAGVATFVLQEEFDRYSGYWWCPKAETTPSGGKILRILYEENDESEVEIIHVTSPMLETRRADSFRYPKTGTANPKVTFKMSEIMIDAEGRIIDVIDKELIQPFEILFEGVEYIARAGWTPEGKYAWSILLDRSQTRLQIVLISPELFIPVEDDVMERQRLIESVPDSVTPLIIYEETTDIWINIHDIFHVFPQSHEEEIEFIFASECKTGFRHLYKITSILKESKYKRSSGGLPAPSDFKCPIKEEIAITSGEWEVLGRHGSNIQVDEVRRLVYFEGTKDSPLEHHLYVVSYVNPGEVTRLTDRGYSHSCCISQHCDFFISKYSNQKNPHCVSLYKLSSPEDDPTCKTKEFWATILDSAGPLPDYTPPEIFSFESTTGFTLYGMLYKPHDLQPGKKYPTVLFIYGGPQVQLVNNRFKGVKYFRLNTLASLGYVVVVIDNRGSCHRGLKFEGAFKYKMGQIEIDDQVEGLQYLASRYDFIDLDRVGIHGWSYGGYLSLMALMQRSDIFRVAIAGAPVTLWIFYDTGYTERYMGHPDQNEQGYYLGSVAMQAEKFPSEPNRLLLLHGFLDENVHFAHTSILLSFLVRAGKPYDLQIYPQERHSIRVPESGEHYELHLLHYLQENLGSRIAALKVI

For `CC1(C)O[C@@H]2[C@@H](CO[C@@]3(CN4CCC(NCC(=O)N5CCC[C@H]5C#N)CC4)OC(C)(C)O[C@@H]23)O1` [Example 1, 2,3:4,5-di-O-isopropylidene-1-[piperidin-(4-aminoacetylpyrrolidine-2-(S)-carbonitrile}-1-yl]-1-deoxy-β-D-fructopyranose], the IC50 on DPP IV amounted to 5.98 nM. Also, the inhibition at 10 µM against DPP7 came to 0%; against DPP8 it was 18%; on DPP9 it was 29%.

Turning to `CC1(NCC(=O)N2CCC[C@H]2C#N)CCN(C[C@H]2O[C@@H]3OC(C)(C)O[C@@H]3[C@H]2O)CC1` [Example 135, 1,2-O-Isopropylidene-5-[4-methylpiperidin-{4-aminoacetylpyrrolidine-2-(S)-carbonitrile}-1-yl]-5-deoxy-α-D-xylofuranose], half-maximal inhibition against DPP IV (IC50) was put at 22.3 nM.

As to `CCOCCO[C@@H]1O[C@H](CN2CCC(C)(NCC(=O)N3CCC[C@H]3C#N)CC2)[C@H]2OC(C)(C)O[C@@H]12` [Example 123, 2,3-O-Isopropylidene-β-1-O-ethoxyethyl-5-[piperidin-{4-aminoacetylpyrrolidine-2-(S)-carbonitrile}(4-methyl)-1-yl]-5-deoxy-D-ribofuranose], the IC50 against DPP IV amounted to 14.3 nM. This IC50 is about 1.6-fold lower than that of the compound before.

Consider `CC1(NCC(=O)N2CCC[C@H]2C#N)CCN(S(=O)(=O)OC[C@H]2O[C@@H]3OC(C)(C)O[C@@H]3[C@H]3OC(C)(C)O[C@H]32)CC1` [Example 112, 1,2:3,4-di-O-isopropylidene-6-[piperidin-{(4-aminoacetylpyrrolidine-2-(S)-carbonitrile)-4-methyl-1-sulfonyl}-1-yl]-D-galactopyranose], for which the 50% inhibitory concentration (IC50) at DPP IV came to 18.2 nM.

These data come from US20120040897A1, “NOVEL DERIVATIVES OF ACYL CYANOPYRROLIDINES” (Sun Pharma Advanced Research Company Ltd., priority 2008, published 2012).
